According to US20210059995A1, “Composition for Protecting Cornea” (Kyoto University, priority 2017, published 2021):

What was measured:
[1] = test system: rabbit corneal endothelial cells; experiment: Cell morphology (phase-contrast) of cultured rabbit corneal endothelial cells under antimycin, oligomycin or glucose deprivation; assay type: cell-based; settings: compound 50 μM
Protocol: (§1) Whole eyeballs of Japanese white rabbits (Funakoshi Corporation) were cut along corneal limbus with a razor blade and the corneas were isolated. The corneal endothelial cells were mechanically scraped off and collected with a crescent knife. Primary cultures were prepared in a DMEM with 10% fetal bovine serum and 2 ng/ml bFGF. The sub-confluent cells were treated with trypsin and collected, then plated on 12-well plates at the equal density of 4×10^4 cells/well and cultured in the same medium for 24 hours. The cells were subsequently cultured in the following eight different conditions: (1) control (the medium+DMSO), (2) the medium+KUS121 (50 μM), (3) the medium+antimycin (20 μM), (4) the medium+antimycin (20 μM)+KUS121 (50 μM), (5) the medium+oligomycin (10 μM), (6) the medium+oligomycin (10 μM)+KUS121 (50 μM), (7) DMEM with 2 ng/ml bFGF (non-glucose); and (8) DMEM with 2 ng/ml bFGF (non-glucose)+KUS121 (50 μM).
After the addition of the agents, sequential phase-contrast images of the cultured corneal endothelial cells were obtained.

[2] = test system: rabbit corneal endothelial cells; experiment: Intracellular ATP concentration (luciferase assay) in cultured rabbit corneal endothelial cells; assay type: cell-based; settings: compound 50 μM, FIG. 3
Protocol: as §1
The corneal endothelial cells cultured in the presence of the agents (P=1) were washed with PBS(−), treated with trypsin, suspended in the medium (DMEM with 10% fetal bovine serum and 2 ng/ml bFGF), and counted. Then 2.5×10^4 cells were centrifuged, suspended in PBS(−), and dispensed into 5 wells of a 96-well plate at the density of 5×10^3 cells/well. The cells were subjected to a luciferase assay (“Cell” ATP Assay reagent, TOYO B-Net CO., LTD.). The fluorescence intensities were measured as relative intracellular ATP concentrations using a luminometer.

[3] = test system: immortalized human corneal endothelial cells (iHCECs); experiment: Cell morphology and apoptosis of thapsigargin-treated immortalized human corneal endothelial cells by phase-contrast microscopy; assay type: cell-based; settings: 10 μM thapsigargin for 8 hours, compound 10, 25, 50 or 100 μM with 24 hours pretreatment, FIG. 4
Protocol: Corneas for research were imported from SightLife™ (Seattle, Wash.). The cornea endothelial cells were stripped from the corneas with Descemet's membranes and immersed in a corneal preservation solution (Optisol-GS, Bausch & Lomb Incorporated). The cornea endothelial cells were treated with collagenase and collected. The cells were cultured in a conditioned medium which was prepared by culturing 3T3 cells in OptiMEM (Gibco, 3195070) with 10% fetal bovine serum (FBS) for 24 hours and then adding 10 μM SB203580 (Funakoshi, 13067) and 1 μM SB431542 (Wako, 192-16541) to the culture medium.
The corneal endothelial cells were immortalized by the following procedures. SV40 large T antigen and hTERT genes were amplified by PCR, and introduced into a lentiviral vector (pLenti6.3-V5-TOPO; Life Technologies Inc.). The lentiviral vector and three helper plasmids (pLP1, pLP2, pLP/VSVG; Life Technologies Inc.) were transfected into 293T cells (RCB2202; Riken Bioresource Center, Ibaraki, Japan) with a transfection reagent (Fugene HD; Promega Corp., Madison, Wis.). The culture supernatant containing the virus was collected 48 hours after the transfection and added to the culture medium of the cornea endothelial cells with 5 μg/ml of Polybrene, thereby the SV40 large T antigen and hTERT genes were introduced into the cells. […]

[4] = test system: immortalized human corneal endothelial cells (iHCECs); experiment: Western blot analysis of cleaved caspase 3 and PARP in thapsigargin-treated immortalized human corneal endothelial cells; assay type: cell-based; settings: 10 μM thapsigargin for 8 hours, compound 10, 25, 50 or 100 μM, FIG. 5
Protocol: The medium was changed to the medium containing 10 μM thapsigargin (WAKO, 209-17281) and KUS121 (10 μM, 25 μM, 50 μM, or 100 μM), and the cells were cultured for 8 hours. Medium: DMEM+10% FBS+1% P/S
After the observation of the morphology, western blot analysis was performed by the following procedures.
The media were collected from each well on ice, the cells were washed twice with 1×PBS(−), and the washings were collected. In order to collect suspended cells and dead cells, the collected media and washings were centrifuged at 4° C., 800 g, for 12 minutes, the supernatants were discarded and the pellets were obtained. Protein extraction buffers (RIPA; 50 mM Tris-HCl (pH 7.4), 150 mM NaCl, 1 mM EDTA, 0.1% SDS, 0.5% DOC, 1% NP-40) were added to the washed cells on ice. The cells were suspended together with the pellets of the suspended cells and dead cells. […]
The protein extracts (7 μg each) were separated by SDS-PAGE and transferred to a nitrocellulose membrane. […] The signals were detected by Chemi Lumi ONE Ultra (NACALAI TESQUE, INC., 11644-40). The intensities of the detected bands were analyzed by luminescent image analyzer LAS-4000 mini (Fujifilm Corporation) and ImageQuant™ software (GE Healthcare).

rabbit corneas [5] = experiment: Rabbit corneas preserved in Optisol-GS: HE-staining microscopic findings and central corneal thickness; settings: Optisol-GS at 4° C., 1-4 weeks, KUS121 50 μM, KUS187 20 μM; for swelling of corneal endothelial cells during preservation: control swelled at week 1; for swelling of corneal endothelial cells during preservation / swelling of corneal stroma during preservation: FIG. 6; for swelling of corneal stroma during preservation: control swelled at week 3; for corneal epitheliums and cornea thicknesses versus control group: especially at week 3 or later, FIG. 6, 7
Protocol: (§2) Japanese white rabbits were euthanized, whole eyeballs were excised, and sclerocorneal preparations were prepared by using a razor blade. Each four sclerocorneal preparations were preserved in the following preservation solutions at 4° C. for 4 weeks; (1) Optisol-GS (control), (2) Optisol-GS+KUS121 (50 μM), or (3) Optisol-GS+KUS187 (20 μM). The tissues were sequentially embedded and sectioned.
The tissue sections were stained with HE-staining and observed by microscopy. The images were compared over time among the preservation conditions (FIG. 6). Microscopic images of the sections including the central parts of the corneas were obtained and the central corneal thicknesses were measured and compared over time among the preservation conditions (FIG. 7). In the corneas preserved in Optisol-GS (control), the corneal endothelial cells swelled at week 1 and the corneal stroma swelled at week 3.

[6] = test system: rabbit corneal epithelial cells; experiment: Rabbit corneas preserved in Optisol-GS: apoptosis of corneal epithelial cells by TUNEL assay; settings: Optisol-GS at 4° C., 1-4 weeks; KUS121 50 μM, KUS187 20 μM; FIG. 8-10
Protocol: as §2
The tissue sections were fluorescently stained by TUNEL method and observed by confocal microscopy. Images of the epithelial layers around the centers of the corneas were obtained in three different fields (FIG. 8). […] The total corneal epithelial cells stained with PI and the TUNEL-positive cells were counted and the percentages of the TUNEL-positive cells were calculated. The percentages were compared over time among the preservation conditions (FIG. 10). The TUNEL-positive apoptotic cells were increased in the corneal epithelial cells of the control group after week 1. The apoptosis was suppressed in the KUS121 and KUS187 groups.

[7] = test system: rabbit corneal endothelial cells; experiment: Rabbit corneas preserved in Optisol-GS: corneal endothelia by immunofluorescence staining of Na+/K+ ATPase; settings: Optisol-GS at 4° C., from week 1; KUS121 50 μM, KUS187 20 μM; FIG. 11
Protocol: as §2
The tissue sections were fluorescently stained with anti-Na+/K+ ATPase antibody, the corneal endothelia around the centers of the corneas were observed by indirect immunofluorescence microscopy, and the images were compared over time among the preservation conditions (FIG. 11).

rabbit corneas [8] = experiment: Rabbit corneas preserved in Optisol-GS: transmission electron microscopy; settings: corneas preserved for one week in Optisol-GS at 4° C., compound 50 μM, FIG. 13
Protocol: as §2
Corneas preserved for one week were immersed in 0.1 M phosphate buffer containing 2% glutaraldehyde at 4° C. for prefixation, in 0.1 M phosphate buffer at 4° C. overnight for washing, and in 2% aqueous osmium solution at 4° C. for 3 hours for postfixation. For dehydration the corneas were successively immersed in ethanol solutions of high concentrations (50, 70, 90, 100, 100, and 100%) at 4° C. (50%) or a room temperature for 15 minutes. For substitution the corneas were immersed in propylene oxide at a room temperature for 45 minutes and then in a mixture of propylene oxide and epoxy resin at a room temperature for 1.5 hours. For embedding the samples and epoxy resin were put into capsules and cured at 60° C. for 48 hours. Then 80-90 nm sections were prepared by using an ultramicrotome and put on 200 meshes. The sections were stained with 2% uranyl acetate and lead and reinforced by carbon deposition (reinforcement of sections against electron beams). […]

## Cc1cc(F)ccc1-c1ccc(N=Nc2cc(S(=O)(=O)[O-])c3ccccc3c2N)cn1.[Na+] [KUS121, 4-amino-3-[6-(4-fluoro-2-methylphenyl)pyridine-3-ylazo]naphthalene-1-sulfonic acid sodium salt]
[1]; antimycin 20 μM, 28 hours after addition of the agents, FIG. 1
  death of corneal endothelial cells caused by antimycin: the cell death was suppressed
[1]; cultured without glucose, 96 hours, FIG. 2
  death of corneal endothelial cells caused by glucose deprivation: the cell death was suppressed
[1]; oligomycin 10 μM, 28 hours after addition of the agents, FIG. 1
  death of corneal endothelial cells caused by oligomycin: the cell death was suppressed
[2]; absence of glucose for 96 hours
  decrease of intracellular ATP concentration in the absence of glucose: the decrease was suppressed
[2]; antimycin 20 μM for 27 hours
  decrease of intracellular ATP concentration caused by antimycin: the decrease was suppressed
[2]; oligomycin 10 μM for 27 hours
  decrease of intracellular ATP concentration caused by oligomycin: the decrease was suppressed
[3]
  deformation of the cells (cell damage) caused by thapsigargin: the deformation was suppressed
[4]
  band of cleaved caspase 3 (about 17 kDa) induced by thapsigargin: hardly detected
Rabbit corneas [5]
  swelling of corneal endothelial cells during preservation: the cell swelling was suppressed until week 2
  swelling of corneal stroma during preservation: the corneal stroma swelling was kept mild until week 4
  corneal epitheliums and cornea thicknesses versus control group: maintained better
[6]
  TUNEL-positive cells among corneal epithelial cells versus control group: fewer through the test period than in the control group
[7]
  corneal endothelial cells (Na+/K+ ATPase staining) versus control group: maintained better
Rabbit corneas [8]
  swelling of the corneal stroma and the corneal endothelial cells (electron microscopy): observed in the control, but not in the corneas preserved in a solution containing KUS121
  vacuolization of the corneal epithelial cells and loss of microvilli: observed in the control, but not in the corneas preserved in a solution containing KUS121

## CCCCOc1c(C=O)cc(C)cc1-c1ccc(N=Nc2cc(S(=O)(=O)[O-])c3ccccc3c2N)cn1.[Na+] [KUS187, 4-amino-3-[6-(3-formyl-2-butoxy-5-methylphenyl)pyridine-3-ylazo]naphthalene-1-sulfonic acid sodium salt]
Rabbit corneas [5]
  swelling of corneal endothelial cells during preservation: the cell swelling was suppressed until week 2
  swelling of corneal stroma during preservation: the corneal stroma swelling was kept mild until week 4
  corneal epitheliums and cornea thicknesses versus control group: maintained better
[6]
  TUNEL-positive cells among corneal epithelial cells versus control group: fewer through the test period than in the control group
[7]
  corneal endothelial cells (Na+/K+ ATPase staining) versus control group: maintained better
